Laboratory results: ChEMBL document CHEMBL3286374, “Muchimangins G-J, fully substituted xanthones with a diphenylmethyl substituent, from Securidaca longepedunculata” (J Nat Prod, 2014)
Activity calls are given as the source filed them. The calls are words filed in the database; no cut-off is given here.

Columns and labels:
PANC-1 [1] = assay: Cytotoxicity against human PANC1 cells in nutrient-rich DMEM media by WST8 assay; type: functional, cell-based
PANC-1 [2] = assay: Cytotoxicity against human PANC1 cells in nutrient-deprived NDM media by WST8 assay; type: functional, cell-based

SMILES	Activity (PANC-1 [1])	Activity (PANC-1 [2])
COc1cc(OC)c(C(c2ccccc2)c2c(O)c(OC)c3oc4c(OC)c5c(c(OC)c4c(=O)c3c2O)OCO5)cc1OC (stereo not drawn)	inactive	inactive
COc1cc(OC)c(C(c2ccccc2)c2c(O)c(OC)c3oc4c(OC)c(O)c(OC)c(O)c4c(=O)c3c2O)cc1OC (stereo not drawn)	inactive	inactive
COc1cc(OC)c(C(c2ccccc2)c2c(O)c(OC)c3oc4c(O)c(OC)c(OC)c(OC)c4c(=O)c3c2O)cc1OC (stereo not drawn)	inactive	inactive
COc1cc(OC)c(C(c2ccccc2)c2c(O)c(OC)c3oc4c(OC)c(OC)c(OC)c(O)c4c(=O)c3c2O)cc1OC (stereo not drawn)	inactive	inactive
